# Results taken from patent US20230103444A1 (The Regents of the University of Colorado, a Body Corporate, priority 2020, published 2023).
# Several values for one entry are separate records, joined by “and”; a condition that tells them apart may be missing. Equal entries are not always repeated. Entries after “also recorded” stand apart in the source; their conditions may differ.
# How the values were obtained:
# [1] = tested on: SW620 tumor xenografts
# Procedure: In vivo studies. […] Body weight and tumor volumes were monitored 2×/week. […] In addition, irinotecan was administered i.p. at 50 mg/kg.
# [2] = tested on: CRC102 patient-derived tumor organoids; assay: Patient tumor organoid cytotoxicity; format: cell-based; details: Homo sapiens; single agent, Table 4A
# Procedure: Patient Cell Tumor Organoid Culture. CRC048 and CRC102 patient cell samples were expanded and cultured as PDTOs using reported methodologies and reagents. (Drost et al., 2016; Sato et al., 2011) Briefly, patient cells were washed with PBS, digested with TrypLE, and filtered through 100 μm cell strainer before used in 3D cell culture. Patient cells were seeded at 5,000 cells per well in 96-well plates, coated with 2% Matrigel, and allowed to self-assemble as PDTOs over 72 h.
# Tumor Organoid Cytotoxicity.
# [3] = tested on: SW620 cells; assay: Annexin V-FITC apoptosis assay; format: cell-based, human; details: 12 h, compared to DMSO; positive control SN-38
# Procedure: SW620 cells were plated at 30,000 cells/well in 96-well plates. […] Cells were then rinsed 2× with cold PBS, 1× with cold Annexin-V staining buffer (10 mM HEPES, pH 7.4, 140 mM NaCl, 2.5 mM CaCl2), and then incubated with Annexin-V FITC at 1:100 for 30 min in the dark. Cells were then rinsed 2× with Annexin-V staining buffer and FITC intensity was measured using an EnVision® plate reader (PerkinElmer, Hopkinton, Mass.).
# [4] = Liver toxicity, histological evaluation; format: in vivo, athymic nude mice; design: key to Liver Inflammation score: 0 = none; 1 = minimal; 2 = mild; 3 = moderate; 4 = severe; key to Liver Assessment: N = normal background lesion for mouse strain; A = abnormal; details: for liver toxicity, in words: 50 mg/kg i.p. QD 5 days
# Procedure: Two million VimPro-GFP SW620 cells suspended in 100 μL of a 1:1 mixture of Matrigel® matrix (Corning Life Sciences, Corning, N.Y.) and RPMI 1640 were injected into the flanks of 9-week old female athymic nude mice (Nude-Foxn1nu (069)) (Envigo, Huntingdon, Cambridgeshire, UK). Growth was monitored with caliper measurements 3× per week. […] Treatments were administered i.p. QD over five days. Mice were sacrificed 2 h after the final dose on day five of the treatment.
# [5] = Accumulation in SW620 xenograft tumors and liver; format: in vivo, athymic nude mice; details: 50 mg/kg i.p. QD 5 days, n=4
# Procedure: Growth was monitored with caliper measurements 3× per week. […] Treatments were administered i.p. QD over five days. Mice were sacrificed 2 h after the final dose on day five of the treatment.
# [6] = tested on: VimPro-GFP SW620 xenograft tumors; assay: Pharmacodynamic Western blot of xenograft tumor tissue; format: in vivo, athymic nude mice; details: 50 mg/kg i.p. QD 5 days
# Procedure: CRC cell lines and homogenized tumor tissue samples from mice were resuspended in RIPA lysis buffer (20 mM Tris-HCl (pH 7.5), 150 mM NaCl, 1 mM Na2EDTA, 1 mM EGTA, 1% NP-40, 1% sodium deoxycholate, 2.5 mM sodium pyrophosphate, 1 mM b-glycerophosphate, 1 mM Na3VO4, 0.1 mM PMSF. Protein concentration was determined using the Pierce™ BCA protein assay kit (ThermoFisher, Waltham, Mass.). Forty micrograms of sample were run on 10% Bis-Tris gels. Following electrophoresis, the proteins were transferred to a nitrocellulose membrane. The membranes were blocked at room temperature with 5% non-fat milk in TBS/Tween® 20 (TBST contains 20 mM Tris, 150 mM NaCl, and 0.1% Tween®20 (Croda International PLC, Snaith, UK) for 1 hour at room temperature. Membranes were washed three times with TBST. Blots were incubated with the appropriate primary antibody in 5% nonfat milk in TBST overnight at 4° C. Membranes were washed three times with TBST and then incubated with appropriate secondary antibody for one hour. Membranes were washed again with TBST three times. […]
# Two million VimPro-GFP SW620 cells suspended in 100 μL of a 1:1 mixture of Matrigel® matrix (Corning Life Sciences, Corning, N.Y.) and RPMI 1640 were injected into the flanks of 9-week old female athymic nude mice (Nude-Foxn1nu (069)) (Envigo, Huntingdon, Cambridgeshire, UK). Growth was monitored with caliper measurements 3× per week. […]
# [7] = tested on: TCF-transcription; assay: TOPflash TCF-transcriptional reporter assay; format: cell-based, human; details: TOPflash reporter in CRC cell lines (SW620, HCT116, DLD1CHD1L-OE), 24 h; listed as 8
# Procedure: TOPflash assay (Millipore, Billerica, Mass.) was used to evaluate TCF transcriptional activity in CRC cells. A total of 20,000 cells per well were plated into 96-well white plates and transfected with TransIT®-LT1 transfection reagent (Mirus, Madison, Wis.). Cells were incubated with transfection mix for 24 h. Next, cells were washed with phosphate-buffered solution (PBS) and a 1:1 ratio of PBS:ONE-Glo™ luciferase reagent Promega (Madison, Wis.) was added and the luminescence was detected within 10 min. A duplicate experiment was conducted to measure cell viability using CellTiter-Glo® Luminescent Cell Viability Assay (Promega, Madison, Wis.), which was used to normalize TOPflash luminescence to obtain the fold change in TCF activity. Experiments were replicated 2× (n=3 for each experiment).
# TCF-transcriptional Reporter Assay. […] Afterwards, cells from the white solid bottom plate were carefully washed with PBS and a 1:1 ratio of PBS:One-Glo Luciferase Assay System (Promega) was added, incubated for 10 min, and luminescence was quantified on Envision plate reader (PerkinElmer) for TCF-activity. As a control, cells from the clear plate were lysed with Mammalian Cell Lysis Buffer (Promega) and the total protein from each well was quantified with BCA assay (ThermoFisher).
Compound,"tumor volume, combination with irinotecan ([1]; compound 6 5 mg/kg i.p. 2×/day + irinotecan 60 mg/kg i.p. 1×/week, 28 days, vs single agents or control)","tumor volume after the last treatment, combination with irinotecan ([1]; compound 6 + irinotecan vs irinotecan alone, last treatment day 28)","survival of tumor-bearing mice, combination with irinotecan ([1]; compound 6 + irinotecan, compared to vehicle and single agents)","survival of tumor-bearing mice, compound alone ([1]; compound 6 alone, compared to vehicle)",IC50 [2],apoptosis (annexin-V staining) [3],"Liver Assessment ([4]; 50 mg/kg QD 5 days, one line per animal, listed as Compound 6.0)","Liver Inflammation score ([4]; 50 mg/kg QD 5 days, one line per animal, scored if abnormal)","liver toxicity, in words [4]","liver toxicity, in words ([4]; listed as 6.0)",concentration accumulated in SW620 tumors [5],epithelial marker ZO-1 and cleaved caspase 3 in tumor tissue [6],"mesenchymal markers vimentin, vimentin reporter (VimPro-GFP) and slug in tumor tissue [6]","inhibition of TCF-transcription, in words [7]"
"Cc1cc(Nc2ccc(NC(=O)Cc3cccs3)cc2)nc(N2CCCC2)n1 [Compound 6, N-(4-((6-methyl-2-(pyrrolidin-1-yl)pyrimidin-4-yl)amino)phenyl)-2-(thiophen-2-yl)acetamide]",significantly inhibit colon SW620 tumor xenografts to almost no tumor volume,significantly inhibits colon SW620 tumors to almost no tumor volume beyond the last treatment,significantly increases the survival,significantly increases the survival,22.6 µM,induced significant apoptosis,N (2×) and A (2×),1,"no evidence of hepatocyte degeneration, necrosis, hyperplasia, or parenchymal inflammation",no apparent liver toxicity; also recorded: does not display any liver toxicity,"10,533±5,579 ng/mL","not statistically significant, upregulation of the epithelial marker ZO-1 and induction of cleaved caspase 3",significant downregulation,–
"Cc1cc(Nc2ccc(NC(=O)c3c[nH]c4ccccc34)cc2)nc(N2CCCC2)n1 [Compound 6.3, N-(4-((6-methyl-2-(pyrrolidin-1-yl)pyrimidin-4-yl)amino)phenyl)-1H-indole-3-carboxamide]",–,–,–,–,–,–,–,–,–,–,–,–,–,potent low μM dose-dependent inhibition; also recorded: more potent dose dependent inhibition
